O=C(/C=C/C=C/c1ccc2c(c1)OCO2)N1CCCCC1
solubility (mole fraction)
Details	298.2 K	303.2 K	308.2 K	313.2 K	318.2 K
in DMSO	0.0287	0.0303	0.0321	0.0339	0.0359
in ethanol	0.00899	0.01	0.011	0.012	0.0134
in ethyl acetate	0.00985	0.011	0.0123	0.0137	0.0154
in ethylene glycol	0.00386	0.00444	0.00515	0.00597	0.0067
in isopropanol	0.0123	0.0136	0.0149	0.0164	0.0182
in methanol	0.00527	0.00584	0.00648	0.00719	0.00791
in n-butanol	0.0156	0.0169	0.0183	0.0201	0.022
in propylene glycol	0.01	0.0111	0.0122	0.0134	0.0147
in sec-butanol	0.0158	0.017	0.0187	0.0206	0.0225
in transcutol	0.0797	0.0826	0.0852	0.0883	0.0917
in water	1.07e-05	1.18e-05	1.29e-05	1.41e-05	1.52e-05

Details	solubility (mole fraction)
in PEG-400, 298.2 K	0.0518
in PEG-400, 303.2 K	0.0584
in PEG-400, 308.2 K	0.0652
in PEG-400, 313.2 K	0.0718
in PEG-400, 318.2 K	0.0788

From BigSolDB 2.1
